According to patent EP0035270A2, “Heterocyclic compounds, compositions thereof, their preparation and use” (THE WELLCOME FOUNDATION LIMITED, priority 1980, dated 1981):

Legend:
[1] = LD50's in mice; details: mouse, in vivo, ip; i.p. administration to mice
Description: The LD50's of compounds of formula were determined by conventional techniques by i.p. administration to mice.

[2] = Effect of pyrazolidinones on bodyweight of rats (single oral dose); type: in vivo; details: 0.22 m moles/kilogram bodyweight, two days after administration
Description: The compound of formula (I) prepared by the methods described in Examples 1 and 2 were administered orally to rats at a dose corresponding to 0.22 m moles/kilogram bodyweight. Two days after administration the weight of the treated rats was compared with control and the difference expressed as a percentage of the weight of the control animals.

[3] = Effect of 1-n-decyl pyrazolidin-3-one on rat bodyweight and food consumption; type: in vivo, Male Sprague-Dawley rats
Description: Male Sprague-Dawley rats were acclimatized as described in Example 6. The Rats (approx. 300 grams) were housed individually to present measurement of food consumption as well as bodyweight. Animals were treated once daily by oral […] guage either with saline or with 1-n-decyl pyrazolidin-3-one (25 mg/kg) in saline vehicle. Measurement of bodyweight and food consumption was […] during the recovery days, when treatment with drug has stopped.

[4] = Effect of varying daily oral doses of 1-n-decyl pyrazolidin-3-one on rat bodyweight; type: in vivo, Male Sprague-Dawley rats; details: for Percent Change from Initial Bodyweight (Mean ± S.E.M.) Day 5: Day 5, rats approx. 575 grams; for Percent Change from Initial Bodyweight (Mean ± S.E.M.) Day 10: Day 10, rats approx. 575 grams
Description: Male Sprague-Dawley rats were acclimatized to laboratory conditions for approximately four weeks prior to the experiment being carried out. The rats were maintained on a 12 hr/12 hr light dark cycle and had continuous access to food and water. Rats weighing approx. 575 grams were housed 4 to a cage and each rat treated daily with an oral injection of either saline vechicle or one of three doses of 1-n-decylpyrazolidinone dissolved in saline vehicle. The saline vehicle was prepared fresh each day.

SMILES: CCCCCCCCCCCCCCN1CCC(=O)N1.Cl [CH3(CH2)13-, 1-(n-tetradecyl)-3-pyrazolidone hydrochloride]
- LD50 [1]: 350 mg/kg

SMILES: CCCCCCCCCCN1CCC(=O)N1.Cl [n-decyl, 1-(n-decyl)-3-pyrazolidone hydrochloride]
- % weight deviation from control [2]: -10.9%
- Percent change in amount of food consumed (Mean ± S.E.M.) ([3]; 25 mg/kg p.o. once daily, Treatment Day 2): -1 ±6%
- Percent change in amount of food consumed (Mean ± S.E.M.) ([3]; after 25 mg/kg p.o. once daily, Recovery Day 2 (treatment stopped)): -8 ±7%
- Percent change in amount of food consumed (Mean ± S.E.M.) ([3]; after 25 mg/kg p.o. once daily, Recovery Day 3 (treatment stopped)): +13 ±8%
- LD50 [1]: 500 mg/kg
- Percent Change from Initial Bodyweight (Mean ± S.E.M.) Day 5 ([4]; 10 mg/kg p.o. daily): -2.7 ± 0.3%
- Percent Change from Initial Bodyweight (Mean ± S.E.M.) Day 10 ([4]; 10 mg/kg p.o. daily): -1.1 ± 0.4%
- Percent Change from Initial Bodyweight (Mean ± S.E.M.) Day 5 ([4]; 15 mg/kg p.o. daily): -3.3 ± 1.0%
- Percent Change from Initial Bodyweight (Mean ± S.E.M.) Day 10 ([4]; 15 mg/kg p.o. daily): -9.6 ± 1.7%
- Percent Change from Initial Bodyweight (Mean ± S.E.M.) Day 5 ([4]; 20 mg/kg p.o. daily): -3.8 ± 0.6%
- Percent Change from Initial Bodyweight (Mean ± S.E.M.) Day 10 ([4]; 20 mg/kg p.o. daily): -11.1 ± 1.8%

SMILES: CCCCCCCCCN1CCC(=O)N1.Cl [n-nonyl, 1-(n-nonyl)-3-pyrazolidone hydrochloride]
- LD50 [1]: 210 mg/kg

SMILES: CCCCCCCCN1CCC(=O)N1.Cl [n-octyl, 1-(n-octyl)-3-pyrazolidone hydrochloride]
- LD50 [1]: 250 mg/kg

SMILES: CCCCCCCCCCCN1CCC(=O)N1.Cl [n-undecyl, 1-(n-undecyl)-3-pyrazolidone hydrochloride]
- LD50 [1]: 350 mg/kg
